Assay results: patent publication US20030185853A1, “Arteriosclerosis-preventing material, immune-activating material, vertebrate that has eaten such materials, and eggs thereof” (Nichimo Co., Ltd., priority 1999, published 2003)

Tests used:
[1] = tested on: Smooth muscle cells (SMC) derived from the aortic tunica media of stroke-prone spontaneously hypertensive rats (SHRSP); experiment: Study 2 on arteriosclerosis capability: propagation of smooth muscle cells of the tunica media; assay type: cell-based; conditions: 0.1 to 30 μmol/liter, five days; for smooth muscle cell propagating capability, number of cells (Determination A, FIG. 5): 10% FBS; for smooth muscle cell propagating capability, number of cells (Determination B, FIG. 6): with 20 ng/ml PDGF
Procedure: The object of the study is to investigate the effect of the above-described concentrated material of the present invention in terms of preventing propagation of smooth muscle cells of the tunica media of the blood vessels, which is one factor in arteriosclerosis.
1) Smooth muscle cells (SMC) derived from the aortic tunica media of stroke-prone spontaneously hypertensive rats (SHRSP) were prepared by the explant method, and five generations were cultivated.
2) After inoculating 10,000 well SMC in a 24-well plate, the cells were rinsed in the subconfluent state with DMEM medium containing 10% FBS at 37° C. and in the presence of 5% CO2. [The medium] was replaced with DMEM medium containing 0.4% albumin (phenol red-free) and cultivated for 48 hours.
3) Genistein (referred to hereafter as Gen), daidzein (referred to hereafter as Dai), glycitein (referred to hereafter as Gly), and the concentrated material of the present invention were each added to DMEM culture medium (phenol red-free) containing 10% FBS (charcoal-treated) to a concentration of 0.1 to 30 μmol/liter and cultivated for five days. Then, the number of cells was determined with a Coulter counter (referred to hereafter as Determination A).
4) The number of cells was determined by adding 20 ng/ml PDGF in accordance with the method 3) described above (referred to as Determination B).

[2] = tested on: chicks; experiment: Study 1 on immune-activating capability: number of deaths during rearing of chicks; assay type: in vivo; conditions: administered to comparison group after three weeks
Procedure: The object of the study is to investigate the immune-activating capability based on the number of deaths during rearing of chicks.
6,200 young chicks immediately after hatching were grouped into a comparison group and a study group each. The comparison group was provided conventional feed to which Bacillus subtilus (0.1 wt %) was added, and the study group was provided conventional feed to which the product (0.1 wt %) of propagation of lactic acid bacteria (Enterococcus faesium) as useful microorganisms in pulse crops of the present invention was added, and the number of deaths of chicks at one week, two weeks, three weeks, and four weeks of age was compared.

Row | Structure (SMILES) | smooth muscle cell propagating capability, number of cells (Determination A, FIG. 5) [1] | smooth muscle cell propagating capability, number of cells (Determination B, FIG. 6) [1] | increase in deaths of chicks after antibiotic administration [2]
1 | O=c1c(-c2ccc(O)cc2)coc2cc(O)ccc12 [Dai, daidzein] | cell-reducing effect | cell-reducing effect | –
2 | O=c1c(-c2ccc(O)cc2)coc2cc(O)cc(O)c12 [Gen, Genistein] | cell-reducing effect | cell-reducing effect | –
3 | CC1(C)S[C@@H]2[C@H](NC(=O)[C@H](N)c3ccccc3)C(=O)N2[C@H]1C(=O)O [ampicillin] | – | – | an increase in deaths could not be prevented
